Data: publication PMC2942996 (Journal of molecular biology, 2010)

Experiments:
[1] = target: isoprene synthase (PcISPS) (Populus tremula x Populus alba, UniProt Q9AR86, C533W/K308R/N59D); test: competitive inhibition of isoprene formation, SBSE GC-MS assay; format: biochemical
[2] = substrate: CC(C)=CCOP(=O)(O)OP(=O)(O)O; test: enzyme kinetics; format: biochemical, Populus tremula x Populus alba; settings: Mg2+ active site

Molecule: CC(C)=CCC/C(C)=C/COP(=O)(O)OP(=O)(O)O [GPP, geranyl diphosphate]
- Ki [1]: 550 µM

B1: isoprene synthase (PcISPS) (Populus tremula x Populus alba; C533W/K308R/N59D) (protein)
chain: EARRSADYEPNSWDYDFLLSSDTDESIEVYKDKAKKLEAEVRREINNEKAEFLTLLELIDNVQRLGLGYRFESDIRRALDRFVSSGGFDGVTKTSLHATALSFRLLRQHGFEVSQEAFSGFKDQNGNFLENLKEDTKAILSLYEASFLALEGENILDEARVFAISHLKELSEEKIGKELAEQVNHALELPLHRRTQRLEAVWSIEAYRKKEDANQVLLELAILDYNMIQSVYQRDLRETSRWWRRVGLATKLHFARDRLIESFYWAVGVAFEPQYSDCRNSVAKMFSFVTIIDDIYDVYGTLDELELFTDAVERWDVNAINDLPDYMKLCFLALYNTINEIAYDNLKDKGENILPYLTKAWADLCNAFLQEAKWLYNKSTPTFDDYFGNAWKSSSGPLQLIFAYFAVVQNIKKEEIENLQKYHDIISRPSHIFRLCNDLASASAEIARGETANSVSCYMRTKGISEELATESVMNLIDETWKKMNKEKLGGSLFAKPFVETAINLARQSHCTYHNGDAHTSPDELTRKRVLSVITEPILPFER
- Km [2]: 3000 µM
